Assay results taken from paper PMC7504466, “In-Vitro and In-Silico Evaluations of Heterocyclic-Containing Diarylpentanoids as Bcl-2 Inhibitors Against LoVo Colorectal Cancer Cells” (Molecules, 2020).

Experiments:
Bcl-xL = assay: Western blot, Bcl-xL; assay type: cell-based, human; conditions: 5 µM, LoVo cells, up to 72 h
Procedure: (§1) Lovo cells (1.5 × 10^4 cells/cm^2) were seeded in a T75 flask and incubated at 37 °C and 5% CO2 atmosphere overnight. The seeded cells were then treated with selected compounds at 5 µM of 2e for 24 h, 48 h, and 72 h. After treatment, the cells were harvested and lysed with phenylmethanesulfonyl fluoride (PMSF)-containing cell lysis buffer. The lysates were then centrifuged at 13,300× g for 15 min and the supernatant was collected. Protein concentrations of all samples were determined using a BCA assay kit (Thermo Scientific Inc., Waltham, MA, USA). Equal amounts of protein were electrophoresed in 12% and 20% SDS-polyacrylamide gel (SDS-PAGE), and electro-transferred onto a 0.22-μm polyvinyldene difluoride membrane. Each membrane was blocked with 5% (w/v) skim milk at room temperature for 1 h followed by overnight incubation with specific primary antibodies (1:1000) at 4 °C. Subsequently, the respective membrane was washed thrice with TBST (0.05% (v/v) of tween-20) followed by 1 h incubation with secondary antibody (1:10,000). Upon completion, the membrane was washed thrice with 1X Tris-Buffered Saline, 0.1% Tween® 20 Detergent (TBST) and the immune reactive bands were developed using SuperSignal West Dura Extended Duration Substrate (Thermo Scientific Inc., Waltham, MA, USA). […]

cleaved caspase-7 = assay: Western blot, cleaved caspase-7; assay type: cell-based, human; conditions: 5 µM, LoVo cells, after 24 h
Procedure: as §1

NCI-H508 cells = assay: MTT cytotoxicity assay, NCI-H508 cells; assay type: cell-based; conditions: Homo sapiens, 72 h post-treatment, read-out: IC50 (µM) BRAF NCI-H508
Procedure: (§2) The in-vitro cytotoxic activity of the synthesized compounds on seven human CRC cell lines including KRAS (T84, SW620, LoVo) and BRAF (HT29, NCI-H508, RKO and LS411N) mutated cells were determined by MTT assay as previously described. The IC50 values obtained are summarized in Table 2 in which 5-FU and normal human dermal fibroblasts (NHDF) were used as controls. Meanwhile, a heatmap (Figure 3) was also generated using GraphPad Prism v7.0 (GraphPad Software, La Jolla, CA, USA) to visualize the cytotoxic trends of synthesized compounds graphically.
(§3) A panel of KRAS (T84, SW620 and LoVo) and BRAF (HT29, NCI-H508, RKO and LS411N) mutated human CRC cell lines were grown in Dulbecco’s modified Eagle’s medium (DMEM) containing 10% fetal bovine serum (FBS) and 1% penicillin/streptomycin at 37 °C under 5% CO2 while NHDF cells were cultured in DMEM with 5% FBS under the same condition. The culture medium was replenished every two days until the cells reached 80–90% confluency for further usage. All cell lines (T84, ATCC®CCL-248™; SW620, ATCC®CCL-227™; LoVo, ATCC®CCL-229™; HT-29, ATCC®HTB-38; NCI-H508, ATCC®CCL-253™; RKO, ATCC®CRL-2577; LS411N, ATCC®CRL-2159; NHDF, ATCC® PCS-201-010™) were purchased from American Type culture Collections (ATCC, Manassas, VA, USA).
(§4) LoVo cells (1.5–5 × 10^3 cells/well) were seeded into a 96 well plate and incubated at 37 °C and 5% CO2 atmosphere for 24 h. On the following day, the cell media were replaced with 100 µL of test compounds at various concentration. The final concentration of DMSO in the well is 0.1%. After 72 h of incubation, culture medium was removed and 100 µL of MTT (thiazoyl blue tertrazolium bromide) solution (0.5 mg/mL in culture media) was added. The resultant plates were then further incubated at 37 °C for 4 h. Upon completion, the MTT solution was removed and the formazan salts formed were dissolved in 100 µL of DMSO. The absorbance was recorded with a microplate reader at 570 nm. The IC50 values of tested compounds were calculated from three independent experiments.

[1] = system: normal human dermal fibroblasts (NHDF); assay: MTT cytotoxicity assay, normal human dermal fibroblasts; assay type: cell-based; conditions: 72 h post-treatment
Procedure: as §2, §3, §4

LoVo cells [2] = assay: Cell apoptosis analysis (Annexin V-PE/7-AAD flow cytometry); assay type: cell-based, human
Procedure: LoVo cells (1 × 10^5 cells/well) were seeded into a 6-well plate and incubated at 37 °C and 5% CO2 atmosphere overnight. The seeded cells were then treated with different concentrations of tested compounds for 24, 48 and 72 h. After treatments, cells were trypsinized and washed with PBS followed by the addition of 1× binding buffer (500 μL), Annexin V-PE (5 μL) and 7-AAD (5 μL) solutions. The resulting mixture was then incubated in the dark at 4 °C for 20 min. Upon completion, the mixture was analysed with a flow-cytometer at the PE and APC channel. The values presented are the means ± SD of three independent experiments.

HT29 cells = assay: MTT cytotoxicity assay, HT29 cells; assay type: cell-based; conditions: Homo sapiens, HT-29, 72 h post-treatment, read-out: IC50 (µM) BRAF HT29
Procedure: as §2, §3, §4

LoVo cells [3] = assay: Measurement of intracellular ROS levels (DCFH-DA, flow cytometry); assay type: cell-based, human; conditions: 5 µM
Procedure: LoVo cells (1 × 10^5 cells/well) were seeded into a 6-well plate and incubated at 37 °C and 5% CO2 atmosphere overnight. After incubation, the seeded cells were treated with 1 mL of 10 µM DCFDA in culturing media for 1 h. Upon completion, the cells were washed twice with PBS followed by treatments with 5 µM of selected compounds for 24, 48 and 72 h. Then, the treated cells were harvested, washed and re-suspended in PBS followed by flow-cytometric analysis at the FITC channel.

Bcl-2 = assay: Western blot, Bcl-2; assay type: cell-based, human; conditions: 5 µM, LoVo cells, as early as 24 h post-treatment
Procedure: as §1

caspase-9 = assay: Western blot, cleaved caspase-9; assay type: cell-based, human; conditions: 5 µM, LoVo cells
Procedure: as §1

SMILES: O=C1C(=Cc2ccccc2Br)CSCC1=Cc1ccccc1Br [Compound 2e, 3,5-Bis(2-bromobenzylidene)tetrahydro-4H-thiopyran-4-one]
- Bcl-xL expression (Bcl-xL): remained unaffected
- cleaved caspase-7 level (cleaved caspase-7): increased
- IC50 (NCI-H508 cells): 1.1 µM
- IC50 [1]: 7.1 µM
- lowest in vitro effective dose against LoVo cells (LoVo cells [2]): 2.5 µM
- cellular apoptosis (annexin V) (LoVo cells [2]; 0.625 and 1.25 µM): minimal insignificant effects
- cellular apoptosis (annexin V) (LoVo cells [2]; 2.5 and 5 µM, 24-72 h): could induce cellular apoptosis
- IC50 (HT29 cells): 2.1 µM
- cellular ROS level (LoVo cells [3]; 24 h): rapid increment in cellular ROS level
- cellular ROS level (LoVo cells [3]; 48 h and 72 h): secondary increment of cellular ROS
- Bcl-2 expression (Bcl-2): significantly inhibited
- caspase-9 cleavage (caspase-9): activate the cleavage of caspase-9
